Experimental data: US20100215618A1, “NOVEL COMPOUNDS - 644” (Arrow Therapeutics Limited, priority 2009, published 2010)
Read-outs that look alike come from different tables or passages of the source.

Columns and labels:
[1] = in vitro; format: in vitro ADME, Canine; conditions: dog, MDCK
Protocol: Cells used: MDCK (Madin-Darby Canine Kidney) cells, ATCC collection # CCL-34, are used to model the intestinal barrier. Cell culture conditions: cells were cultured at 37° C. in a 5% CO2 environment and split twice a week on seeding at 4×10^5 cells/flask (75 cm^2) on day 1 and 2×10^5 cells/flask on day 4. The culture medium consisted of MEM+Earle's-L Glutamine (Gibco #21090-022) supplemented with 10% Australian Fetal Calf Serum (Sigma #F6178), 2 mM L-Glutamine (Gibco #25030-024) and 1× Non Essential Amino Acids (Gibco #11140-035)
On day 1, a 24-well plate (Sarstedt, #83.1836.300) was filled with individual 3 lam pore membrane inserts (Millipore, #PITP 012 50). Each plate allows the testing of a cocktail of 3 control compounds and 11 test compounds in duplicate. The wells (outside the inserts) were filled with 500 μl of culture medium.
A flask of cells was trypsinised and a cell count carried out. Cells were diluted to 1.2×10^5 cells/ml (1×10^5 cells/cm^2) and 500 μl dispensed in each insert on the 24-well plate. The plate was incubated at 37° C. in a 5% CO2 environment for 48 hours.
On day 3, the culture medium was removed from the wells, then the inserts and is replaced with fresh culture medium in the wells, then the inserts (500111 per well and insert) The plate was incubated at 37° C. in a 5% CO2 environment for 24 hours.
On day 4, the controls cocktail and test compounds solutions were made up in HBSS buffer (Hank's Balanced Salt Solution, Gibco #14025-050) at 1011M. The final controls and test compounds concentration in the assay was 10 μM, and DMSO concentration maintained at 0.1% (0.3% for the controls cocktail). The controls cocktail was made up of Atenolol (Sigma # A-7655), Dexamethasone (Sigma #D-1756) and Propranolol (Sigma # P-0884).
A 24-well plate was filled with 500 μl of HBSS buffer per well (assay plate) The culture medium was removed from the wells and inserts. The inserts were washed three times with approximately 500 μl of HBSS buffer. The inserts were transferred to the assay plate. Controls cocktail and test compounds solutions were dispensed inside the inserts (500 μl per insert), in duplicates. The assay plate was incubated at 37° C. in a 5% CO2 environment for 2 hours.
After 2 hours, the inserts were removed from the assay plate and transferred into a new 24-well plate (wash plate) The assay plate containing the receiver solutions was left aside for later sampling. To measure the mass balance, 150 μl were sampled from each insert (donor solutions) and dispensed into 150 μl of HPLC-grade Acetonitrile (Fisher Scientific) containing an internal standard and 0.05% formic acid.
The donor solutions were aspirated and discarded from each insert, and the inserts washed once with approximately 500 μl of HBSS buffer. A 24-well plate was filled with 500 μl of HBSS buffer per well (monolayer integrity plate) A Lucifer Yellow (Sigma #L0144) solution was made up at 1001.1M in HBSS buffer. The empty inserts were transferred into the monolayer integrity plate and filled with 500 μl of the Lucifer Yellow solution to determine the cell monolayers integrity and leftover of the solution was kept in a fridge. The plate was incubated at 37° C. in a 5% CO2 environment for 2 hours.
In the meantime, 150 μl were sampled from the assay plate (receiver solutions) and dispensed into 150 μl of HPLC-grade Acetonitrile containing an internal standard and 0.05% formic acid. A calibration curve was made for each mix of compounds (as appropriate depending on compounds molecular weights) A 10 μM mix of compounds in HBSS buffer was diluted 1:1 in HPLC-grade Acetonitrile containing an internal standard and 0.05% formic acid. A 1:1 mix of HBSS buffer and HPLC-grade Acetonitrile containing an internal standard and 0.05% formic acid was made up and used to make up the calibration curve (2 fold dilutions), with concentrations ranging from 10 μM to 0.078 μM. […]

[2] = system: HCV replicon cells Huh 9B (genotype 1b); assay: 1b Replicon Assay (luciferase readout); format: cell-based; conditions: Hepatitis C virus, Huh 9B replicon cells, 72 h, luciferase activity
[3] = read-out: pIC50 1b Replicon (converted)

Compound | Papp at 2 h, 10 µM [1] [×10⁻⁶ cm/s] | IC50 ([2]; read-out: HCV IC50 1b Replicon) [nM] | IC50 [2, 3] [nM]
CC(C)(C)OC(=O)N[C@@H](C(=O)N1CCC[C@H]1c1ncc(-c2ccc(-c3ccc(C(=O)Nc4ccc(CN5CCS(=O)(=O)CC5)cc4)cc3)cc2)[nH]1)c1ccccc1 [Example 2, Tert-butyl N-[(1R)-2-[(2S)-2-[5-[4-[4-[[4-[(1,1-dioxo-1,4-thiazinan-4-yl)methyl]phenyl]carbamoyl]phenyl]phenyl]-1H-imidazol-2-yl]pyrrolidin-1-yl]-2-oxo-1-phenyl-ethyl]carbamate] | 0.2 | 0.02 | 0.0204
COC(=O)N[C@H](C(=O)N1CCC[C@H]1c1ncc(-c2ccc(-c3ccc(C(=O)Nc4ccc(CN5CCS(=O)(=O)CC5)cc4)cc3)cc2)[nH]1)C(C)C [Example 3, Methyl N-[(1S)-1-[(2S)-2-[5-[4-[4-[[4-[(1,1-dioxo-1,4-thiazinan-4-yl)methyl]phenyl]carbamoyl]phenyl]phenyl]-1H-imidazol-2-yl]pyrrolidine-1-carbonyl]-2-methyl-propyl]carbamate] | 4.1 | 0.34 | 0.339
COC(=O)N[C@H](C(=O)N1CCC[C@H]1c1ncc(-c2ccc(-c3ccc(C(=O)Nc4ccc(CN5CCS(=O)(=O)CC5)cc4)cc3)cc2)[nH]1)C(C)(C)C [Example 5, Methyl N-[(1S)-1-[(2S)-2-[5-[4-[4-[[4-[(1,1-dioxo-1,4-thiazinan-4-yl)methyl]phenyl]carbamoyl]phenyl]phenyl]-1H-imidazol-2-yl]pyrrolidine-1-carbonyl]-2,2-dimethyl-propyl]carbamate] | 2 | 0.73 | 0.741
COC(=O)N[C@H](C(=O)N1CCC[C@H]1c1ncc(-c2ccc(-c3ccc(C(=O)Nc4ccc(CN5CCS(=O)(=O)CC5)cc4)cc3)cc2)[nH]1)c1ccccc1 [Example 6, Methyl N-[(1S)-2-[(2S)-2-[5-[4-[4-[[4-[(1,1-dioxo-1,4-thiazinan-4-yl)methyl]phenyl]carbamoyl]phenyl]phenyl]-1H-imidazol-2-yl]pyrrolidin-1-yl]-2-oxo-1-phenyl-ethyl]carbamate] | 0.1 | 0.04 | 0.0417
COC(=O)N[C@@H](C(=O)N1CCC[C@H]1c1ncc(-c2ccc(-c3ccc(C(=O)Nc4ccc(CN5CCS(=O)(=O)CC5)cc4)cc3)cc2)[nH]1)c1ccccc1 [Example 7, Methyl N-[(1R)-2-[(2S)-2-[5-[4-[4-[[4-[(1,1-dioxo-1,4-thiazinan-4-yl)methyl]phenyl]carbamoyl]phenyl]phenyl]-1H-imidazol-2-yl]pyrrolidin-1-yl]-2-oxo-1-phenyl-ethyl]carbamate] | 0.4 | 0.05 | 0.0468
CCN(CC)[C@@H](C(=O)N1CCC[C@H]1c1ncc(-c2ccc(-c3ccc(C(=O)Nc4ccc(CN5CCS(=O)(=O)CC5)cc4)cc3)cc2)[nH]1)c1ccccc1 [Example 8, 4-[4-[2-[(2S)-1-[(2R)-2-(diethylamino)-2-phenyl-acetyl]pyrrolidin-2-yl]-1H-imidazol-5-yl]phenyl]-N-[4-[(1,1-dioxo-1,4-thiazinan-4-yl)methyl]phenyl]benzamide] | 1.2 | 0.05 | 0.0468
CN(C)[C@@H](C(=O)N1CCC[C@H]1c1ncc(-c2ccc(-c3ccc(C(=O)Nc4ccc(CN5CCS(=O)(=O)CC5)cc4)cc3)cc2)[nH]1)c1ccccc1 [Example 9, 4-[4-[2-[(2S)-1-[(2R)-2-(dimethylamino)-2-phenyl-acetyl]pyrrolidin-2-yl]-1H-imidazol-5-yl]phenyl]-N-[4-[(1,1-dioxo-1,4-thiazinan-4-yl)methyl]phenyl]benzamide] | 0.9 | 0.1 | 0.1
COC(=O)N[C@@H](CC(C)C)C(=O)N1CCC[C@H]1c1ncc(-c2ccc(-c3ccc(C(=O)Nc4ccc(CN5CCS(=O)(=O)CC5)cc4)cc3)cc2)[nH]1 [Example 14, Methyl N-[(1S)-1-[(2S)-2-[5-[4-[4-[[4-[(1,1-dioxo-1,4-thiazinan-4-yl)methyl]phenyl]carbamoyl]phenyl]phenyl]-1H-imidazol-2-yl]pyrrolidine-1-carbonyl]-3-methyl-butyl]carbamate] | 1.2 | 0.36 | 0.355
CC[C@H](C)[C@H](NC(=O)OC)C(=O)N1CCC[C@H]1c1ncc(-c2ccc(-c3ccc(C(=O)Nc4ccc(CN5CCS(=O)(=O)CC5)cc4)cc3)cc2)[nH]1 [Example 16, Methyl N-[(1S,2S)-1-[(2S)-2-[5-[4-[4-[[4-[(1,1-dioxo-1,4-thiazinan-4-yl)methyl]phenyl]carbamoyl]phenyl]phenyl]-1H-imidazol-2-yl]pyrrolidine-1-carbonyl]-2-methyl-butyl]carbamate] | 1 | 0.13 | 0.132
COC(=O)N[C@H](C(=O)N1CCC[C@@H]1c1ncc(-c2ccc(-c3ccc(C(=O)Nc4ccc(CN5CCS(=O)(=O)CC5)cc4)cc3)cc2)[nH]1)C(C)C [Example 20, Methyl N-[(1S)-1-[(2R)-2-[5-[4-[4-[[4-[(1,1-dioxo-1,4-thiazinan-4-yl)methyl]phenyl]carbamoyl]phenyl]phenyl]-1H-imidazol-2-yl]pyrrolidine-1-carbonyl]-2-methyl-propyl]carbamate] | 0.4 | 319 | 316
CCCS(=O)(=O)N1CCN(Cc2ccc(NC(=O)c3ccc(-c4ccc(-c5cnc([C@@H]6CCCN6C(=O)[C@@H](NC(=O)OC)C(C)C)[nH]5)cc4)cc3)cc2)CC1 [Example 40, Methyl N-[(1S)-2-methyl-1-[(2S)-2-[5-[4-[4-[[4-[(4-propylsulfonylpiperazin-1-yl)methyl]phenyl]carbamoyl]phenyl]phenyl]-1H-imidazol-2-yl]pyrrolidine-1-carbonyl]propyl]carbamate] | 0.7 | 0.1 | 0.1
COC(=O)N[C@H](C(=O)N1CCOC[C@H]1c1ncc(-c2ccc(-c3ccc(C(=O)Nc4ccc(CN5CCS(=O)(=O)CC5)cc4)cc3)cc2)[nH]1)c1ccccc1 [Example 47, Methyl N-[(1S)-2-[(3R)-3-[5-[4-[4-[[4-[(1,1-dioxo-1,4-thiazinan-4-yl)methyl]phenyl]carbamoyl]phenyl]phenyl]-1H-imidazol-2-yl]morpholin-4-yl]-2-oxo-1-phenyl-ethyl]carbamate] | 0.1 | 0.28 | 0.275
COC(=O)N[C@H](C(=O)N1CCC[C@H]1c1ncc(-c2ccc(-c3ccc(C(=O)Nc4ccc(CN5CCS(=O)(=O)CC5)cc4)cc3)c(C)c2)[nH]1)C(C)C [Example 54, Methyl N-[(1S)-1-[(2S)-2-[5-[4-[4-[[4-[(1,1-dioxo-1,4-thiazinan-4-yl)methyl]phenyl]carbamoyl]phenyl]-3-methyl-phenyl]-1H-imidazol-2-yl]pyrrolidine-1-carbonyl]-2-methyl-propyl]carbamate] | 6 | 0.21 | 0.209
